For 22 compounds, IC50, inhibition and Ratio IC50 results are on record in ChEMBL document CHEMBL4177658, “Benzo[c][1,2,5]thiadiazole derivatives: A new class of potent Src homology-2 domain containing protein tyrosine phosphatase-2 (SHP2) inhibitors” (Bioorg Med Chem Lett, 2017).

In general, IC50 refers to the concentration at which inhibition is half-maximal. Low values mean greater potency in that assay, high ones weaker potency in that assay. The term inhibition denotes the relative decrease from the control value, in per cent. A lower inhibition goes with a weak effect.

SMILES strings stand for the structures.

In experiment [1] the target is T1, Tyrosine-protein phosphatase non-receptor type 11 (Homo sapiens, UniProt Q06124).
T1 sequence (Q06124 whole entry): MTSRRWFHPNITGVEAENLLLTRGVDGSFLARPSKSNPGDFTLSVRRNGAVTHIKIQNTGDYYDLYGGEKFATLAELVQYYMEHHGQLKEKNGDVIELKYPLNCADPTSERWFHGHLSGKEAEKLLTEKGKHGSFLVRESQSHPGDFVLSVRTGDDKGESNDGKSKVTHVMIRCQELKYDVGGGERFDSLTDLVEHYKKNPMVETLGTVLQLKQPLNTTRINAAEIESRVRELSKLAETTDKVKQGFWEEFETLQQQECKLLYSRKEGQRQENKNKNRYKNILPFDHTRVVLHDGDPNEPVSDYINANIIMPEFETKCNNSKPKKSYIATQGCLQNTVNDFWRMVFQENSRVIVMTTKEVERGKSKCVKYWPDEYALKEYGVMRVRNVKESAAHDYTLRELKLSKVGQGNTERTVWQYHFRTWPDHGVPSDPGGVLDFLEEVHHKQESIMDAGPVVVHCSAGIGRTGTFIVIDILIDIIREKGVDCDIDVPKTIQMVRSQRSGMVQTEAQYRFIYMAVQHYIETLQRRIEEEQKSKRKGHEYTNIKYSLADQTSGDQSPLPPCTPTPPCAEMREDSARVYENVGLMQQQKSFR
The experiment in a line: Inhibition of SHP2 (unknown origin) using 3-o-methylfluorescein phosphate as substrate by fluorescence assay.

For experiment [2], the target named is T2, Tyrosine-protein phosphatase non-receptor type 1 (Homo sapiens, UniProt P18031).
T2 sequence (P18031 whole entry): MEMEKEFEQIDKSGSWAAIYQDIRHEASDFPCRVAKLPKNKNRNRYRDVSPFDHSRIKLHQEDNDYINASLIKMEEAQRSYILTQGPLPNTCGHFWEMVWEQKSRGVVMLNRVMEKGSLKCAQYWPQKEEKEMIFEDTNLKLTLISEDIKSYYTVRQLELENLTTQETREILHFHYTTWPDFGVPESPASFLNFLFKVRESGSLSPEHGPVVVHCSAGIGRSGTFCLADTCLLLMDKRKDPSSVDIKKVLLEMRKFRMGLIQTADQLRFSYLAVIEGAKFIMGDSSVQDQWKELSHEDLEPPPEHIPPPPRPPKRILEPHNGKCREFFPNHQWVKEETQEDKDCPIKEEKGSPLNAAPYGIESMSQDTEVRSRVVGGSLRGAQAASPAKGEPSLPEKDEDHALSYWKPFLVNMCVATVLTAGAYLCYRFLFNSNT
As to the kind of experiment: Inhibition of GST-tagged PTP1B (unknown origin) using pNPP as substrate measured for 3 mins by colorimetric assay.

For experiment [3], the target named is T3, Tyrosine-protein phosphatase non-receptor type 11 (Homo sapiens) (UniProt Q06124).
T3 sequence (whole entry): T1 sequence (Q06124 whole entry)
The experiment in a line: Inhibition of SHP2 (unknown origin) at 20 ug/ml using 3-o-methylfluorescein phosphate as substrate by fluorescence assay.

In experiment [4] the target is T4, Tyrosine-protein phosphatase non-receptor type 1 (Homo sapiens) (UniProt P18031).
T4 sequence (whole entry): T2 sequence (P18031 whole entry)
As to the kind of experiment: Inhibition of GST-tagged PTP1B (unknown origin) at 20 ug/ml using pNPP as substrate measured for 3 mins by colorimetric assay.

The species named for experiment [5] is Homo sapiens. The experiment in a line: Selectivity index, ratio of IC50 for GST-tagged PTP1B (unknown origin) to iC50 for SHP2 (unknown origin).
For experiment [6], the species on record is Homo sapiens. The experiment in a line: Selectivity index, ratio of IC50 for SHP1 (unknown origin) to IC50 for SHP2 (unknown origin).
The target of experiment [7] is T5, Tyrosine-protein phosphatase non-receptor type 2 (Homo sapiens) (UniProt P17706).
T5 sequence (whole entry): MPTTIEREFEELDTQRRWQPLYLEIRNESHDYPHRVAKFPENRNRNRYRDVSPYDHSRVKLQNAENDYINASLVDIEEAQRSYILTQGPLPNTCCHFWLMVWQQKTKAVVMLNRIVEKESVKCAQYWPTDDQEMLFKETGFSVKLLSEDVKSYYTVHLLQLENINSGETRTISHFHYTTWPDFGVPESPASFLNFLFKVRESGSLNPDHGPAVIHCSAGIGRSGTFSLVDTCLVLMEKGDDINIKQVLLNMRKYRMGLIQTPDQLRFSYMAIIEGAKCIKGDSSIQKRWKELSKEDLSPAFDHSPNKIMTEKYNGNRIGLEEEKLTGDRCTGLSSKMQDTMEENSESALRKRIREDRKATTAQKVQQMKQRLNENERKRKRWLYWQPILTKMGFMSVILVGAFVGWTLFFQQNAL
The experiment in a line: Inhibition of GST-tagged TCPTP (unknown origin) at 20 ug/ml using pNPP as substrate measured for 3 mins by colorimetric assay.

The target in experiment [8] is Tyrosine-protein phosphatase non-receptor type 6 (Homo sapiens, UniProt P29350). The experiment in a line: Inhibition of SHP1 (unknown origin) using 3-o-methylfluorescein phosphate as substrate by fluorescence assay.
Sequence of Tyrosine-protein phosphatase non-receptor type 6 (P29350 whole entry): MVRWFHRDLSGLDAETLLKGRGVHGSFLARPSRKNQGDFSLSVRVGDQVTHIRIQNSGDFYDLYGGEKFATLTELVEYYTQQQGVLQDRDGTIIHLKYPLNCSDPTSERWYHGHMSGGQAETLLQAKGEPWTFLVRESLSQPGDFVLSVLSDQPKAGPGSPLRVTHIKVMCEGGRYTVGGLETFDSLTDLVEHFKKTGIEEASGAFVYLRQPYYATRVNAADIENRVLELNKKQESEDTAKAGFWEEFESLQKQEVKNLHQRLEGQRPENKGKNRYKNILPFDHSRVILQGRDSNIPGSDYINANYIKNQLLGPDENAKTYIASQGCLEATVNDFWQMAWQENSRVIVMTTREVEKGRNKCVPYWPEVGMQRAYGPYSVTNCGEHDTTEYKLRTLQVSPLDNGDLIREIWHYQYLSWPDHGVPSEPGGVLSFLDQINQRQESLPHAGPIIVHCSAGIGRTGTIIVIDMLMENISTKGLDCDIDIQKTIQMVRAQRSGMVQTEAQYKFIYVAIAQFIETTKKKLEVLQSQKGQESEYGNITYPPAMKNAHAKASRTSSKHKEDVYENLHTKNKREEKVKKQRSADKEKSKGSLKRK

In the case of `Nc1cc2nsnc2cc1C#CCCCCCl`, the half-inhibitory concentration (IC50) was 5.81 µM in experiment [1] and 38.2 µM in experiment [2].

For `O=[N+]([O-])c1cc2nsnc2cc1-c1ccccc1`, the inhibition in experiment [3] and in experiment [4] was less than 50% throughout.

Turning to `C#Cc1cc2nsnc2cc1N`, the Ratio IC50 in the experiment listed under Homo sapiens [5] worked out at 25; in the experiment filed under Homo sapiens [6], 2.02. For the same compound, the inhibition in experiment [7] was less than 50%. For the same compound, the 50% inhibitory concentration (IC50) in experiment [8] amounted to 4.28 µM; in experiment [1], 2.11 µM; in experiment [2], 50.2 µM.

Turning to `c1cc2nsnc2cc1NCC1CCCCC1`, the inhibition in experiment [3] and in experiment [4] was less than 50% throughout.

The compound `Nc1cc2nsnc2cc1Br` came in with an IC50 in experiment [1] of 42.4 µM. The inhibition in experiment [4] was less than 50%.

`Nc1ccc2nsnc2c1` came in with an IC50 in experiment [1] of 39.1 µM. The inhibition in experiment [4] was less than 50%.

Take `Nc1cc2nsnc2cc1-c1ccccc1`: the inhibition in experiment [3] and in experiment [4] was less than 50% in each case.

For `c1ccc(CNc2ccc3nsnc3c2)cc1`, the IC50 came out at 26.5 µM in experiment [1] and 42.1 µM in experiment [2].

As to `O=[N+]([O-])c1cc2nsnc2cc1C#CC1CC1`, the inhibition in experiment [3] and in experiment [4] was less than 50% in each case.

With `C[Si](C)(C)C#Cc1cc2nsnc2cc1N`, the inhibition in experiment [3] and in experiment [4] was less than 50% in each case.

As to `c1coc(CNc2ccc3nsnc3c2)c1`, the inhibition in experiment [3] and in experiment [4] was less than 50% throughout.

As for `c1csc(CNc2ccc3nsnc3c2)c1`, the half-inhibitory concentration (IC50) came to 23.9 µM in experiment [1] and 48.3 µM in experiment [2].

With `C[Si](C)(C)C#Cc1cc2nsnc2cc1[N+](=O)[O-]`, the inhibition in experiment [3] and in experiment [4] was less than 50% each time.

In turn, `C#Cc1cc2nsnc2cc1[N+](=O)[O-]` came in with an IC50 in experiment [1] of 30 µM. In addition, the inhibition in experiment [4] is less than 50%.

In the case of `c1ccc(CNc2ccc3nsnc3c2)nc1`, the 50% inhibitory concentration (IC50) in experiment [1] came out at 30.6 µM. This compound showed an inhibition in experiment [4] of less than 50%.

On to `CC(C)(C)C#Cc1cc2nsnc2cc1[N+](=O)[O-]`, for which the inhibition in experiment [3] and in experiment [4] was less than 50% throughout.

Turning to `CCCNc1ccc2nsnc2c1`, the inhibition in experiment [3] and in experiment [4] was less than 50% in each case.

On to `Nc1cc2nsnc2cc1C#Cc1ccccc1`, for which the IC50 in experiment [1] was 14 µM; in experiment [2] it was 33.6 µM.

`O=[N+]([O-])c1cc2nsnc2cc1C#CCCCCCl`: the inhibition in experiment [3] and in experiment [4] was less than 50% throughout.

Regarding `O=[N+]([O-])c1cc2nsnc2cc1C#Cc1ccccc1`, the inhibition in experiment [3] and in experiment [4] was less than 50% in each case.

In turn, `Nc1cc2nsnc2cc1C#CC1CC1` had an IC50 in experiment [1] of 15.5 µM. Besides, the inhibition in experiment [4] was less than 50%.

`CC(C)(C)C#Cc1cc2nsnc2cc1N`: the IC50 in experiment [1] came to 25.8 µM. For the same compound, the inhibition in experiment [4] was less than 50%.
